Activity calls are given as the source filed them. No cut-off for these calls is given here.
Experiments:
[1] = tested on: DNA; assay: Binding affinity to calf thymus DNA assessed as change in melting temperature at 100 uM by spectroscopic analysis; assay type: nucleic-acid assay; settings: Bos taurus
[2] = tested on: DNA; assay: Binding affinity to calf thymus DNA assessed as intercalation after 2 hrs by Stern-Volmer plot relative to control; assay type: nucleic-acid assay; settings: Bos taurus
[3] = tested on: BGC-823; assay: Cytotoxicity against human BGC823 cells after 48 hrs by MTT assay; assay type: functional, cell-based; settings: BGC-823, 48 h
[4] = tested on: DNA; assay: Binding affinity to calf thymus DNA assessed as hypochromicity at 20 uM after 2 hrs by UV-Vis absorption titration analysis; assay type: nucleic-acid assay; settings: Bos taurus
[5] = tested on: HL-60; assay: Cytotoxicity against human HL60 cells after 48 hrs by MTT assay; assay type: functional, cell-based; settings: HL-60, 48 h
[6] = tested on: Bel-7402; assay: Cytotoxicity against human Bel7402 cells after 48 hrs by MTT assay; assay type: functional, cell-based; settings: Bel-7402, 48 h
[7] = tested on: KB; assay: Cytotoxicity against human KB cells after 48 hrs by MTT assay; assay type: functional, cell-based
[8] = tested on: DNA; assay: Binding affinity to calf thymus DNA assessed as intercalation after 2 hrs by UV-Vis absorption titration analysis; assay type: nucleic-acid assay; settings: Bos taurus
[9] = tested on: DNA; assay: Binding affinity to calf thymus DNA assessed as conformational changes in DNA morphology at […] after 2 hrs by circular dichroism analysis; assay type: nucleic-acid assay; settings: Bos taurus

ΔTm [1] | KSV [2] | Activity [4] | K [8] | Activity [9] | SMILES | IC50 [3] | IC50 [5] | IC50 [6] | IC50 [7]
1.2 °C | 1.79 ×10⁵ /M | 25% | 3.45 ×10⁵ /M | Active | COc1ccc2cc3[n+](cc2c1OCCOCCOCCN1CCOCC1)CCc1cc2c(cc1-3)OCO2 | 10.8 µM | 14.8 µM | 9.66 µM | 10 µM
1.7 °C | 1.82 ×10⁵ /M | 21% | 6.32 ×10⁶ /M | Active | COc1ccc2cc3[n+](cc2c1OCCOCCN1CCOCC1)CCc1cc2c(cc1-3)OCO2 | 11.9 µM | 16.4 µM | 9.44 µM | 9.93 µM
– | – | – | – | – | COc1ccc2cc3[n+](cc2c1OC)CCc1cc2c(cc1-3)OCO2 [BERBERINE CHLORIDE] | 7.04 µM | 5.83 µM | 16.3 µM | 6.03 µM
1.4 °C | 1.27 ×10⁵ /M | 17% | 3.55 ×10⁸ /M | Active | COc1ccc2cc3[n+](cc2c1OCCN1CCOCC1)CCc1cc2c(cc1-3)OCO2 | 2.82 µM | 2.71 µM | 11.6 µM | 5.46 µM
1.3 °C | 1.01 ×10⁵ /M | 21% | 1.86 ×10⁵ /M | Active | COc1ccc2cc3[n+](cc2c1OCCOCCOCCN1CCCCC1)CCc1cc2c(cc1-3)OCO2 | 20.6 µM | 45.8 µM | 33.4 µM | 33.9 µM
2.2 °C | 7.09 ×10⁴ /M | 21% | 1.27 ×10⁸ /M | Active | COc1ccc2cc3[n+](cc2c1OCCN1CCCCC1)CCc1cc2c(cc1-3)OCO2 | 10.2 µM | 6.51 µM | 27.5 µM | 17.1 µM
1.5 °C | 8.01 ×10⁴ /M | 19% | 1.49 ×10⁶ /M | Active | COc1ccc2cc3[n+](cc2c1OCCOCCN1CCCCC1)CCc1cc2c(cc1-3)OCO2 | 22.2 µM | 46.8 µM | 17.9 µM | 19.7 µM
– | – | – | – | – | COc1ccc2cc3[n+](cc2c1O)CCc1cc2c(cc1-3)OCO2 [BERBERRUBINE CHLORIDE] | 7.66 µM | 11.4 µM | 34.3 µM | 6.92 µM

From ChEMBL document CHEMBL2434919, “Synthesis, cytotoxicity, and DNA-binding property of berberine derivatives” (Med Chem Res, 2013)
